Activity, IC50 and inhibition in vivo data for 22 compounds are collected here from ChEMBL document CHEMBL6182924, “Discovery of a Novel and Potent MET Transcription Inhibitor Targeting Promoter G-Quadruplex for the Treatment of NSCLC” (J Med Chem, 2025).

The source made the active and inactive calls. The rule behind the calls is not given here.

The test system of the first test is Quadruplex DNA. The test is described as follows: Binding affinity to G-quadruplex DNA (unknown origin) at 5 uM by fluorescence quenching analysis. The format is nucleic-acid assay.
Conditions: not given
In the case of `Nc1cccc(-c2cc3cccnc3c3ncccc23)c1`, the result was Active.

With `COc1cc(-c2nc3c4cccnc4c4ncccc4c3[nH]2)cc2c1OCO2`, the outcome was Active.

The next test deals with A549. The test can be described thus: Antiproliferative activity against human A549 cells incubated for 3 days by CCK-8 assay. The following applies: A549, 72 h. It is filed as functional, cell-based.
Compound `O=C(Nc1cccc(-c2cc3cccnc3c3ncccc23)c1)c1ccc2nccnc2c1` returned an IC50 of 0.8 µM.

In turn, `N#Cc1cccc(C(=O)Nc2cccc(-c3cc4cccnc4c4ncccc34)c2)c1` returned an IC50 of 2.51 µM.

`N#Cc1cccc(-c2ccc(-c3nc4c5cccnc5c5ncccc5c4[nH]3)o2)c1` had an IC50 of 1.05 µM.

As for `O=[N+]([O-])c1ccc(-c2ccc(-c3nc4c5cccnc5c5ncccc5c4[nH]3)o2)cc1`, half-maximal inhibition (IC50) was put at 3.2 µM.

The compound `Cn1ccc(-c2ccc(-c3nc4c5cccnc5c5ncccc5c4[nH]3)o2)n1` showed a half-inhibitory concentration (IC50) of 4.95 µM. This IC50 lies about 1.5-fold higher than the previous one.

Regarding `N#Cc1ccc(-c2ccc(-c3nc4c5cccnc5c5ncccc5c4[nH]3)o2)cc1`, the IC50 was found to be 4.9 µM. The IC50 values of the last two compounds are within 1.5-fold of each other.

With `COc1cccc(-c2csc(-c3nc4c5cccnc5c5ncccc5c4[nH]3)c2)c1`, the half-inhibitory concentration (IC50) is 0.58 µM. This IC50 lies about 8.4-fold lower than the previous one.

Take `Brc1csc(-c2nc3c4cccnc4c4ncccc4c3[nH]2)c1`: the IC50 was found to be 6.1 µM.

`c1cnc2c(c1)c1nc(-c3ccc(-c4ccc5c(c4)OCCO5)o3)[nH]c1c1cccnc12` gave an IC50 of 0.71 µM.

Take `Cn1ccc(-c2csc(-c3nc4c5cccnc5c5ncccc5c4[nH]3)c2)n1`: half-maximal inhibition (IC50) was put at 3.72 µM. This IC50 lies about 5.2-fold higher than the previous one.

Take `Brc1ccc(-c2nc3c4cccnc4c4ncccc4c3[nH]2)o1`: the IC50 is 4.47 µM.

Regarding `Fc1cccc(-c2ccc(-c3nc4c5cccnc5c5ncccc5c4[nH]3)o2)c1`, half-maximal inhibition (IC50) was put at 1.43 µM.

For `COc1ccc(C(=O)Nc2cccc(-c3cc4cccnc4c4ncccc34)c2)cc1`, the midpoint of inhibition, the IC50, lay at 1.13 µM.

`COc1cc2nccc(Oc3ccc(NC(=O)C4(C(=O)Nc5ccc(F)cc5)CC4)cc3)c2cc1OC` [CABOZANTINIB] had a half-maximal inhibitory concentration (IC50) of 4.4 µM. Compared with the last compound, the IC50 is about 3.9-fold higher.

`O=C(Nc1cccc(-c2cc3cccnc3c3ncccc23)c1)c1ccc(Cl)nc1` displayed an IC50 of 3.44 µM.

`N#Cc1cccc(-c2csc(-c3nc4c5cccnc5c5ncccc5c4[nH]3)c2)c1`: the IC50 stood at 6.53 µM.

In the case of `O=C(Nc1cccc(-c2cc3cccnc3c3ncccc23)c1)c1ccccc1`, the midpoint of inhibition, the IC50, lay at 1.79 µM.

As for `Oc1ccc(-c2ccc(-c3nc4c5cccnc5c5ncccc5c4[nH]3)o2)cc1`, the half-inhibitory concentration (IC50) was 2.13 µM.

With `COc1cccc(C(=O)Nc2cccc(-c3cc4cccnc4c4ncccc34)c2)c1OC`, the concentration for half-maximal inhibition (IC50) is 1.2 µM. This IC50 lies about 1.8-fold lower than the previous one.

In turn, `c1cnc2c(c1)c1nc(-c3cc(-c4ccc5c(c4)OCCO5)cs3)[nH]c1c1cccnc12` registered an IC50 of 0.89 µM.

In another test the test system is A549. The test can be described thus: Downregulation of c-MYC expression in human A549 cells up to 2000 nM incubated for 72 hrs by Western blot analysis. The format is functional, cell-based.
Conditions: not given
(In general: In western blotting, separated proteins are transferred to a membrane and probed.)
As for `O=C(Nc1cccc(-c2cc3cccnc3c3ncccc23)c1)c1ccc2nccnc2c1`, the result was Active.

Another test relates to A549. The test can be described thus: Antitumor activity against human A549 cells xenografted in BALB/c mouse assessed as tumor growth inhibition at 20 mg/kg, po administered once a day and measured up to 24 days. The following applies: A549, 576 h, time <= 24 day, read-out: TGI. The format is functional. Background: A xenograft is tissue or cells of one species grown in another, often human tumour cells in immunodeficient mice.
With `COc1cc2nccc(Oc3ccc(NC(=O)C4(C(=O)Nc5ccc(F)cc5)CC4)cc3)c2cc1OC` [CABOZANTINIB], the inhibition in vivo at 20 mg/kg amounted to 51.7%.

In a further test the test system is BaF3. The test can be described thus: Antiproliferative activity against mouse BaF3 cells harboring TPR-MET L1195V mutant incubated for 24 hrs by CCK-8 assay. The following applies: BaF3, 24 h. It is filed as functional, cell-based. Background: Tetrazolium dyes change colour on reduction, which living cells bring about.
`COc1cc2nccc(Oc3ccc(NC(=O)C4(C(=O)Nc5ccc(F)cc5)CC4)cc3)c2cc1OC` [CABOZANTINIB] registered an IC50 of 0.92 µM.

For another test, the system named is BaF3. The test can be described thus: Antiproliferative activity against mouse BaF3 cells harboring TPR-MET […] mutant incubated for 24 hrs by CCK-8 assay. It is filed as functional, cell-based. The following applies: BaF3, 24 h.
Consider `COc1cc2nccc(Oc3ccc(NC(=O)C4(C(=O)Nc5ccc(F)cc5)CC4)cc3)c2cc1OC` [CABOZANTINIB], for which half-maximal inhibition (IC50) required 3.98 µM.

For the next test, the system named is BaF3. The test is described as follows: Antiproliferative activity against mouse BaF3 cells harboring TPR-MET D1228N mutant incubated for 24 hrs by CCK-8 assay. The format is functional, cell-based. The following applies: BaF3, 24 h.
Turning to `COc1cc2nccc(Oc3ccc(NC(=O)C4(C(=O)Nc5ccc(F)cc5)CC4)cc3)c2cc1OC` [CABOZANTINIB], the concentration for half-maximal inhibition (IC50) came out at 5.84 µM.

For orientation: IC50 means the concentration that inhibits the measured activity by half. Low readings indicate greater potency in that assay, high ones weaker potency in that assay.
